What was measured:
[1] = cytotoxicity of compounds tested alone against drug-resistant cancer cells; assay type: cell-based; conditions: human, MDA-435/LCC-MDR drug-resistant cancer cells, read-out: cytotoxicity IC50, compound alone
Procedure: Compounds VIB 106 and VIB 122 were tested for their cytotoxicity against drug-resistant cancer cells, both alone, and in combination with paclitaxel.
The treatment consisted of concurrent exposure of MDA-435/LCC-MDR cells to paclitaxel in the presence or absence of the compounds reversing agent (1 μM) for 72 h in vitro. Assessment of cytotoxicity, i.e. cell growth inhibition, was determined according to the methods of Skehan, et al. as discussed in J. Nat. Cancer Inst., 82, 1107,1990. Briefly, cells were plated between 400 and 1200 cells/well in 96 well plates and incubated at 37° C. for 15-18 h prior to drug addiction to allow attachment of cells. Compounds were solubilized in 100% DMSO and further diluted in RPMI-1640 containing 10 mM HEPES. After a 72 h incubation, 100 μl of ice-cold 50% TCA was added to each well and incubated for 1 h at 4° C. Plates were then washed 5 times with tap water to remove TCA, low-molecular weight metabolites and serum proteins. Sulforhodamine B (SRB) (0.4%, 50 μl) was added to each well. Following a five minute incubation at room temperature, plates were rinsed 5 times with 0.1% acetic acid and air dried. Bound dye was solubilized with 10 mM Tris Base (pH 10.5) for 5 min on a gyratory shaker. Optical density was measured at 570 nm. [drawing 4] [drawing 5] [drawing 6] [drawing 7]

[2] = test system: drug-resistant breast cancer cells MDA435/LCC6-MDR; assay: cytostatic activity in combination with paclitaxel (SRB cell growth inhibition); assay type: cell-based; conditions: IC50 of paclitaxel in presence or absence of compound (reversing agent 1 μM), 72 h
Procedure: Following a five minute incubation at room temperature, plates were rinsed 5 times with 0.1% acetic acid and air dried. Bound dye was solubilized with 10 mM Tris Base (pH 10.5) for 5 min on a gyratory shaker.

| IC50 [2] [nM] | SMILES | IC50 at 72 h [1] [nM] |
| --- | --- | --- |
|  | CC(C)=CCOc1ccc2c(C)cc(=O)oc2c1C(=O)C=Cc1cccnc1 | > 1000 |
| 426 | CC(=O)O[C@H]1C(=O)[C@@]2(C)[C@H]([C@H](OC(=O)c3ccccc3)[C@]3(O)C[C@H](OC(=O)[C@H](O)[C@@H](NC(=O)c4ccccc4)c4ccccc4)C(C)=C1C3(C)C)[C@]1(OC(C)=O)CO[C@@H]1C[C@@H]2O [Paclitaxel] |  |
|  | C=C(C)COc1ccc2c(C)cc(=O)oc2c1C(=O)C=Cc1cccnc1 [VIB 122, 1-[4-Methyl-7-(2-methylallyloxy)coumarin8-yl]-3-(pyridine-3-yl)propen-1-one] | > 1000 |

Source: patent publication US6767916B2 (Indena S.p.A., priority 1999, dated 2004)
